Test system in the first data set: not listed separately
Description: r1 relaxivity measurements (20 MHz, 0.5 T, 37° C.). Format: physicochemical. The conditions noted are these: 100 mM Tris buffer, 0.6 mM HSA, no Zn^2+. Here is the method: Longitudinal relaxation times were measured using inversion recovery method on a MRS-6 NMR analyzer from the Institute Joz̆ef Stefan (Ljubljana, Slovenija) operating at 20 MHz. Relaxivity was determined by linear regression analysis of the relaxation rates of five solutions (0-1.0 mM). All samples were measured at 310 K using a warm air blower. Five different sample concentrations (0, 0.25, 0.5, 0.75, 1.0 mM) of gadolinium complex were made up in Tris buffer at 0.1 M and pH 7.4 to generate the relaxivity value for the free complex. ZnCl2 was then added to each of the above sample to produce a [Gd]:[Zn] ratio of 1:1. After 30 min of incubation at 310 K, T1 measurements were performed, from which the relaxivity of sensor-Zn^2+ was calculated. Finally, HSA was added to each of above sample to achieve HSA concentration of 0.6 mM. After further incubation at 310 K for 30 min, T1 of each sensor-Zn^2+-HSA adduct was measured, from which the relaxivity of sensor-Zn^2+-HSA adduct was calculated. Zinc titrations were performed with constant [GdL]=0.5 mM and increasing amounts of [Zn^2+]=0-2 mM in Tris buffer at 0.1 M and pH 7.4.
T1 sequence (P02768 25-609): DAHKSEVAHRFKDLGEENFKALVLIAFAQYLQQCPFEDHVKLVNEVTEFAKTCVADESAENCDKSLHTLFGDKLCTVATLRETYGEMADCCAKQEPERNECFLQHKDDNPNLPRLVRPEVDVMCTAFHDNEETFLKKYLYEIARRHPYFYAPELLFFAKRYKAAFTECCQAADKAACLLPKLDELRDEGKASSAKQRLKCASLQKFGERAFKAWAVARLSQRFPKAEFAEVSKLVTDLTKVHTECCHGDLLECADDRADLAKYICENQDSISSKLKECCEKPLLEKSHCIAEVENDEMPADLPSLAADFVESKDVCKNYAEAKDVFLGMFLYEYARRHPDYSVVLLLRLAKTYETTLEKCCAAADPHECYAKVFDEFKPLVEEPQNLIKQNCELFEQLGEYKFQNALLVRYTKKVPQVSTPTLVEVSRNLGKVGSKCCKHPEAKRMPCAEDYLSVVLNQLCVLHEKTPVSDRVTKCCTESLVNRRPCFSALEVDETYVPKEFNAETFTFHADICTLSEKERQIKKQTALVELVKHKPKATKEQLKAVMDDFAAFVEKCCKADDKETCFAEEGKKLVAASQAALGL
In the case of `O=C(O)CN1CCN(CC(=O)O)CCN(CC(=O)NCCN(Cc2ccccn2)Cc2ccccn2)CCN(CC(=O)O)CC1` [GdL1], the “r1 0.6 mM HSA alone” value is 5.8 ± 0.1 s⁻¹ mM⁻¹.

As for `O=C(O)CN1CCN(CCC(=O)NCCN(Cc2ccccn2)Cc2ccccn2)CCN(CC(=O)O)CCN(CC(=O)O)CC1` [GdL2], the “r1 0.6 mM HSA alone” value was determined as 6.5 ± 0.1 s⁻¹ mM⁻¹.

With `O=C(O)CCN1CCN(CC(=O)O)CCN(CC(=O)NCCN(Cc2ccccn2)Cc2ccccn2)CCN(CC(=O)O)CC1` [GdL3], the “r1 0.6 mM HSA alone” value stood at 6.9 ± 0.2 s⁻¹ mM⁻¹.

Take `O=C(O)CN1CCN(CC(=O)O)CCN(CC(=O)NCCN(CCc2ccccn2)Cc2ccccn2)CCN(CC(=O)O)CC1` [GdL4]: the “r1 0.6 mM HSA alone” value worked out at 5.6 ± 0.1 s⁻¹ mM⁻¹.

Consider `O=C(O)CN1CCN(CCC(=O)NCCN(CCc2ccccn2)Cc2ccccn2)CCN(CC(=O)O)CCN(CC(=O)O)CC1` [GdL5], for which the “r1 0.6 mM HSA alone” value worked out at 6.3 ± 0.2 s⁻¹ mM⁻¹.

Still in this data set, the particulars now being: 100 mM Tris buffer, CA:Zn = 1:1.
As to `O=C(O)CN1CCN(CC(=O)O)CCN(CC(=O)NCCN(Cc2ccccn2)Cc2ccccn2)CCN(CC(=O)O)CC1` [GdL1], the “r1 With Zn^2+” value is on record as 5.2 ± 0.1^b s^−1 mM^−1 and the “r1 Zn^2+ + 0.6 mM HSA” value is reported as 17.8 ± 0.5^b s^−1 mM^−1.

In the case of `O=C(O)CN1CCN(CCC(=O)NCCN(Cc2ccccn2)Cc2ccccn2)CCN(CC(=O)O)CCN(CC(=O)O)CC1` [GdL2], the “r1 With Zn^2+” value is recorded as 5.5 ± 0.1^b s^−1 mM^−1 and the “r1 Zn^2+ + 0.6 mM HSA” value is recorded as 19.8 ± 0.6^b s^−1 mM^−1.

With `O=C(O)CCN1CCN(CC(=O)O)CCN(CC(=O)NCCN(Cc2ccccn2)Cc2ccccn2)CCN(CC(=O)O)CC1` [GdL3], the “r1 With Zn^2+” value is listed as 5.4 ± 0.1^b s^−1 mM^−1 and the “r1 Zn^2+ + 0.6 mM HSA” value was 21.5 ± 0.7^b s^−1 mM^−1.

Take `O=C(O)CN1CCN(CC(=O)O)CCN(CC(=O)NCCN(CCc2ccccn2)Cc2ccccn2)CCN(CC(=O)O)CC1` [GdL4]: the “r1 With Zn^2+” value is reported as 5.1 ± 0.1^b s^−1 mM^−1 and the “r1 Zn^2+ + 0.6 mM HSA” value was 11.4 ± 0.3^b s^−1 mM^−1.

Take `O=C(O)CN1CCN(CCC(=O)NCCN(CCc2ccccn2)Cc2ccccn2)CCN(CC(=O)O)CCN(CC(=O)O)CC1` [GdL5]: the “r1 With Zn^2+” value is 5.3 ± 0.1^b s^−1 mM^−1 and the “r1 Zn^2+ + 0.6 mM HSA” value is 10.4 ± 0.3^b s^−1 mM^−1.

Staying with this data set, now noted: 100 mM Tris buffer, no Zn^2+, no HSA.
`O=C(O)CN1CCN(CC(=O)O)CCN(CC(=O)NCCN(Cc2ccccn2)Cc2ccccn2)CCN(CC(=O)O)CC1` [GdL1]: the “r1 No Zn^2+” value worked out at 4.8 ± 0.1 s⁻¹ mM⁻¹.

As for `O=C(O)CN1CCN(CCC(=O)NCCN(Cc2ccccn2)Cc2ccccn2)CCN(CC(=O)O)CCN(CC(=O)O)CC1` [GdL2], the “r1 No Zn^2+” value amounted to 4.9 ± 0.1 s⁻¹ mM⁻¹.

For the compound `O=C(O)CCN1CCN(CC(=O)O)CCN(CC(=O)NCCN(Cc2ccccn2)Cc2ccccn2)CCN(CC(=O)O)CC1` [GdL3], the “r1 No Zn^2+” value turned out to be 5.0 ± 0.1 s⁻¹ mM⁻¹.

`O=C(O)CN1CCN(CC(=O)O)CCN(CC(=O)NCCN(CCc2ccccn2)Cc2ccccn2)CCN(CC(=O)O)CC1` [GdL4]: the “r1 No Zn^2+” value turned out to be 4.7 ± 0.1 s⁻¹ mM⁻¹.

Consider `O=C(O)CN1CCN(CCC(=O)NCCN(CCc2ccccn2)Cc2ccccn2)CCN(CC(=O)O)CCN(CC(=O)O)CC1` [GdL5], for which the “r1 No Zn^2+” value stood at 4.9 ± 0.1 s⁻¹ mM⁻¹.

Target in another data set: not listed separately
The experiment in a line: GdL-Zn dissociation constants by fluorescence (ZnAF-2F competition). Conditions: K2 in FIG. 4; Tris buffer; read-out: KD(GdLZn). The format is binding. Here is the method:
The procedures reported by Esqueda et al were followed (Esqueda et al., 2009). Solutions containing 1 μM of ZnAF-2F, 0.05 μM ZnCl2 and 100 μM GdL sensors were prepared in TRIS buffer. Aliquots of this solution were 3-fold diluted serially 10 times by addition of a buffered solution containing the same concentration of ZnAF-2F and ZnCl2 but no agent. The fluorescence was measured in triplicate in 96 well plates (100 μL). In a similar manner solutions containing agent, ZnCl2 but no fluorescent probe, were prepared and fluorescence measured by triplicate to account for any signal coming from the agent interacting with Zn^2+. The excitation and emission wavelengths used were 492 and 514 nm, respectively. The Zn dissociation constant was determined by fitting the data to the following equations:
[formula] F is the measured corrected fluorescence. Fmin is the minimal fluorescence observed in the competition binding experiment. Fmax corresponds to the fluorescence in absence of competitor. [GdL]o is the concentration of the zinc sensor chosen. IC50 corresponds to the concentration of competitor that decreases by 50% the % F. K′D is the dissociation constant of the competitor. [FP]o is the total concentration of the fluorescent probe. KD is the dissociation constant of the fluorescent probe and Zn^2+.
A word on the Kd: it is the equilibrium constant for the complex coming apart. In the case of `O=C(O)CN1CCN(CC(=O)O)CCN(CC(=O)NCCN(Cc2ccccn2)Cc2ccccn2)CCN(CC(=O)O)CC1` [GdL1], the Kd amounted to 0.118 µM.

Turning to `O=C(O)CN1CCN(CCC(=O)NCCN(Cc2ccccn2)Cc2ccccn2)CCN(CC(=O)O)CCN(CC(=O)O)CC1` [GdL2], the Kd worked out at 0.19 ± 0.005 µM.

With `O=C(O)CCN1CCN(CC(=O)O)CCN(CC(=O)NCCN(Cc2ccccn2)Cc2ccccn2)CCN(CC(=O)O)CC1` [GdL3], the Kd stood at 0.185 ± 0.005 µM.

Consider `O=C(O)CN1CCN(CC(=O)O)CCN(CC(=O)NCCN(CCc2ccccn2)Cc2ccccn2)CCN(CC(=O)O)CC1` [GdL4], for which the Kd amounted to 2.35 µM.

On to `O=C(O)CN1CCN(CCC(=O)NCCN(CCc2ccccn2)Cc2ccccn2)CCN(CC(=O)O)CCN(CC(=O)O)CC1` [GdL5], for which the Kd is 2.57 ± 0.054 µM.

The next data set addresses T1, HSA (Homo sapiens, UniProt P02768).
T1 construct: purchased Sigma-Aldrich
The experiment in a line: HSA dissociation constant by fluorescence competition with dansylglycine. Format: binding. Conditions: one site competition fitting with dansylglycine; in presence of Zn^2+; read-out: KD(GdLZnHSA). Here is the method: The procedures reported by Esqueda et al were followed (2009). A solution containing 5 μM of dansylglycine (or warfarin), 5 μM HSA, 400 μM GdL plus one equivalent of Zn^2+ was prepared in TRIS buffer. Aliquots of this solution were 2-fold diluted serially ten times by addition of a solution which contained the same concentrations of dansylglycine (warfarin) and HSA but no agent. The fluorescence of 100 μL aliquots was measured in triplicate in 96 well plates. In a similar manner solutions containing agent, HSA but no dansylglycine (warfarin), were also included. Four 100 μL aliquots of the solution containing no agent (maximum fluorescent intensity) were also measured in the same 96 well plate, along with four 100 μL aliquots of HSA in buffer.
The excitation and emission wavelengths used for the dansylglycine: 360 and 465 nm, respectively. The excitation and emission wavelengths used for warfarin: 320 and 380 nm, respectively.
On to `O=C(O)CN1CCN(CC(=O)O)CCN(CC(=O)NCCN(Cc2ccccn2)Cc2ccccn2)CCN(CC(=O)O)CC1` [GdL1], for which the Kd came to 36 ± 1 µM.

`O=C(O)CN1CCN(CCC(=O)NCCN(Cc2ccccn2)Cc2ccccn2)CCN(CC(=O)O)CCN(CC(=O)O)CC1` [GdL2]: the Kd was found to be 37 ± 1 µM.

Regarding `O=C(O)CCN1CCN(CC(=O)O)CCN(CC(=O)NCCN(Cc2ccccn2)Cc2ccccn2)CCN(CC(=O)O)CC1` [GdL3], the Kd was found to be 37 ± 1 µM.

As to `O=C(O)CN1CCN(CC(=O)O)CCN(CC(=O)NCCN(CCc2ccccn2)Cc2ccccn2)CCN(CC(=O)O)CC1` [GdL4], the Kd is 42 ± 1 µM.

For `O=C(O)CN1CCN(CCC(=O)NCCN(CCc2ccccn2)Cc2ccccn2)CCN(CC(=O)O)CCN(CC(=O)O)CC1` [GdL5], the Kd came out at 43 ± 1 µM.

Test system in a further data set: not listed separately
The experiment in a line: 17O NMR of DyL4 without and with HSA. The format is physicochemical. Conditions: no HSA. Here is the method: To gain more insights into this process, further ^17O NMR experiments performed using DyL4 in the presence of 0.6 mM HSA (Dy^3+ was substituted for Gd^3+ for improved fitting purposes, FIGS. 2 and 3 and Table 4).
^17O NMR experiments were performed at 9.4 T on a Bruker AVANCE III NMR spectrometer. The temperature was regulated by air flow controlled by a Bruker VT unit. The samples ([Gd^3+]=25 mM; [Dy^3+]=1 mM) were prepared in ^17O enriched water (10%) with the pH being maintained at 7.4 with 100 mM Tris buffer. The sample was loaded into a 18 μL spherical bulb (Wilmad-Lab Glass, Vineland, NJ) and placed inside a 5 mm NMR tube containing 400 μL of water to eliminate any susceptibility effects. Longitudinal relaxation rates (1/T1) were obtained by the inversion recovery method and transverse relaxation rates (1/T2) were obtained by the Carr-Purcell—Meiboom—Gill spin echo technique. The acidified water (pH=3.0) containing 10% enriched ^17O water was used as a reference for the measurements. For the DyL4 complexes (no HSA and with HSA+Zinc), acidified water solutions and 1 mM LaL4+3 mM HSA with zinc (1:1) were used as the corresponding references. The corresponding fittings were performed with the Scientist 3.0 software (Micromath®).
With Dy^3+ solutions the correlation time for dipolar relaxation is governed by the electron spin relaxation time Te which is much shorter than Tm and τR. For this reason, ^17O transversal relaxation rates predominantly originates from Curie spin relaxation (Caravan et al., 2001; Karimi and Helm, 2016). The Curie relaxation is described by Fries (Vigouroux et al., 1999) and simplified by the Swift-Connick equations (Swift and Connick, 1962): […]
The water exchange rates kex and the chemical shift differences (inner-sphere water and bulk water) Δωm can be expressed as: […]
C1 and C2 are empirical constants described by Lewis and Bleaney (1972), and represent the relative contributions of the contact and pseudocontact terms. B is the external magnetic field.
Consider `O=C(O)CN1CCN(CCC(=O)NCCN(Cc2ccccn2)Cc2ccccn2)CCN(CC(=O)O)CCN(CC(=O)O)CC1` [GdL2], for which the “1/T2m^298” value is 600 ± 20 10^4 s^−1, the A1 is −73 ± 2 10^6rad s^−1K T^−1, the A2 was 0.3 ± 0.1 10^9rad s^−1K^2 T^−1 and the ER was 9.56 ± 2.39 kcal/mol. Further, the “ΔH^‡” value came to 9.87 ± 0.12 kcal/mol.

Staying with this data set, now noted: no HSA; 17O enriched water, TRIS buffered.
As to `O=C(O)CN1CCN(CCC(=O)NCCN(Cc2ccccn2)Cc2ccccn2)CCN(CC(=O)O)CCN(CC(=O)O)CC1` [GdL2], the “kex^298” value is 4.3 ± 0.1 10^6 s^−1.

Source of the values: patent US11713305B2, “Zinc sensors for in vivo imaging of beta-cell function by MRI” (The Board of Regents of the University of Texas System, priority 2017, dated 2023).
